The nature of data set [1]: Solubility analysis in PBS (Analysis Method B). The note with it: pH 7.4. It counts as physicochemical. The method, then: The solubility of compounds of the invention was tested as described in the general methods. Solubility was then graded according to a rating between 1 to 5, where 1 is most soluble and 5 is least soluble.
The next data set deals with T1, GnRHR (Homo sapiens, UniProt P30968).
T1 sequence (P30968 1-328): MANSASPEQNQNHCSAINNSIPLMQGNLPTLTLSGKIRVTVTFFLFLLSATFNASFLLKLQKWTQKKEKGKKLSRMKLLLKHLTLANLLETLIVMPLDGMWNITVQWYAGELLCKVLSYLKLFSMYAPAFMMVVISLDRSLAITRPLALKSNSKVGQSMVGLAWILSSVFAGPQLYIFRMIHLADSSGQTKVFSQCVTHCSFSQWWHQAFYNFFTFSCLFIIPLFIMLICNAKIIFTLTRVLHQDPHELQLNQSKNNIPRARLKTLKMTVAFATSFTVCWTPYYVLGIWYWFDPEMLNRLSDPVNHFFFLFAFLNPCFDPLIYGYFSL
As to conditions: 1000.0.

This note sets out measurements from patent US11564969B2, “Immunorhelin compounds for intracellular infections” (ISR IMMUNE SYSTEM REGULATION HOLDING AB (PUBL), priority 2017, dated 2023).

Square brackets hold non-standard residues; d marks the D form. Peptide text beside a SMILES is read from it. * marks the point of attachment. dHis(τ-Bn) = N[C@H](Cc1cn(Cc2ccccc2)cn1)C(=O)O; d2Nal = N[C@H](Cc1ccc2ccccc2c1)C(=O)O; pGlu = O=C1CC[C@@H](C(=O)O)N1; tBu = CC(C)(C)*

Consider `CCNC(=O)[C@@H]1CCCN1C(=O)[C@H](CCCNC(=N)N)NC(=O)[C@H](CC(C)C)NC(=O)[C@@H](CC(C)C)NC(=O)[C@H](Cc1c[nH]cn1)NC(=O)[C@H](CO)NC(=O)[C@H](Cc1c[nH]c2ccccc12)NC(=O)[C@H](Cc1c[nH]cn1)NC(=O)[C@@H]1CCC(=O)N1` [Compound 42, pGlu-His-Trp-Ser-His-D-Leu-Leu-Arg-Pro-NHEt] ([pGlu]HWSH[dL]LRP-NHEt), for which the Solubility grading in data set [1] is 1. For the same compound, at GnRHR, the “GNRHR Stimulation at 1 μM” value worked out at 102 percentage.
In the same order, the values of `NC(=O)CNC(=O)[C@@H]1CCCN1C(=O)[C@H](Cc1ccc(O)cc1)NC(=O)[C@H](Cc1c[nH]c2ccccc12)NC(=O)[C@@H](Cc1ccc2ccccc2c1)NC(=O)[C@H](Cc1ccc(O)cc1)NC(=O)[C@H](CO)NC(=O)[C@H](Cc1c[nH]c2ccccc12)NC(=O)[C@H](Cc1c[nH]cn1)NC(=O)[C@@H]1CCC(=O)N1` [Compound 30, pGlu-His-Trp-Ser-Tyr-D-Nal-Trp-Tyr-Pro-Gly-amide] ([pGlu]HWSY[d2Nal]WYPG-NH2) are 1 and 12 percentage.
In data set [1], `NC(=O)CNC(=O)[C@@H]1CCCN1C(=O)[C@H](Cc1ccc(O)cc1)NC(=O)[C@H](Cc1c[nH]c2ccccc12)NC(=O)[C@@H](Cc1ccc2ccccc2c1)NC(=O)[C@H](Cc1c[nH]cn1)NC(=O)[C@H](CO)NC(=O)[C@H](Cc1c[nH]c2ccccc12)NC(=O)[C@H](Cc1c[nH]cn1)NC(=O)[C@@H]1CCC(=O)N1` [Compound 33, pGlu-His-Trp-Ser-His-D-Nal-Trp-Tyr-Pro-Gly-amide] ([pGlu]HWSH[d2Nal]WYPG-NH2) yielded a Solubility grading of 2. Besides, the “GNRHR Stimulation at 1 μM” value at GnRHR is 67 percentage.
In the same order, the values of `CC(C)C[C@H](NC(=O)[C@@H](Cc1ccc2ccccc2c1)NC(=O)[C@H](Cc1ccc(O)cc1)NC(=O)[C@H](CO)NC(=O)[C@H](Cc1c[nH]c2ccccc12)NC(=O)[C@H](Cc1c[nH]cn1)NC(=O)[C@@H]1CCC(=O)N1)C(=O)N[C@@H](Cc1ccc(O)cc1)C(=O)N1CCC[C@H]1C(=O)NCC(N)=O` [Compound 25, pGlu-His-Trp-Ser-Tyr-D-Nal-Leu-Tyr-Pro-Gly-amide] ([pGlu]HWSY[d2Nal]LYPG-NH2) are 4 and 82 percentage.
In the same order, the values of `CCNC(=O)[C@@H]1CCCN1C(=O)[C@H](Cc1ccc(O)cc1)NC(=O)[C@H](Cc1c[nH]c2ccccc12)NC(=O)[C@@H](Cc1cn(Cc2ccccc2)cn1)NC(=O)[C@H](Cc1ccc(O)cc1)NC(=O)[C@H](CO)NC(=O)[C@H](Cc1c[nH]c2ccccc12)NC(=O)[C@H](Cc1c[nH]cn1)NC(=O)[C@@H]1CCC(=O)N1` [Compound 62, pGlu-His-Trp-Ser-Tyr-D-Bhi-Trp-Tyr-Pro-NHEt] ([pGlu]HWSY[dHis(τ-Bn)]WYP-NHEt) are 5 and 77 percentage.
In the same order, the values of `CCNC(=O)[C@@H]1CCCN1C(=O)[C@H](Cc1ccc(O)cc1)NC(=O)[C@H](Cc1c[nH]c2ccccc12)NC(=O)[C@@H](Cc1cn(Cc2ccccc2)cn1)NC(=O)[C@H](Cc1c[nH]cn1)NC(=O)[C@H](CO)NC(=O)[C@H](Cc1c[nH]c2ccccc12)NC(=O)[C@H](Cc1c[nH]cn1)NC(=O)[C@@H]1CCC(=O)N1` [Compound 63, pGlu-His-Trp-Ser-His-D-Bhi-Trp-Tyr-Pro-NHEt] ([pGlu]HWSH[dHis(τ-Bn)]WYP-NHEt) are 5 and 77 percentage.
Take `CCNC(=O)[C@@H]1CCCN1C(=O)[C@H](Cc1ccc(O)cc1)NC(=O)[C@H](CC(C)C)NC(=O)[C@@H](Cc1cn(Cc2ccccc2)cn1)NC(=O)[C@H](Cc1c[nH]cn1)NC(=O)[C@H](CO)NC(=O)[C@H](Cc1c[nH]c2ccccc12)NC(=O)[C@H](Cc1c[nH]cn1)NC(=O)[C@@H]1CCC(=O)N1` [Compound 61, pGlu-His-Trp-Ser-His-D-Bhi-Leu-Tyr-Pro-NHEt] ([pGlu]HWSH[dHis(τ-Bn)]LYP-NHEt): the Solubility grading in data set [1] was 3. Also, the “GNRHR Stimulation at 1 μM” value at GnRHR stood at 112 percentage.
In the same order, the values of `CCNC(=O)[C@@H]1CCCN1C(=O)[C@H](Cc1ccc(O)cc1)NC(=O)[C@H](CC(C)C)NC(=O)[C@@H](CC(C)C)NC(=O)[C@H](Cc1ccc(O)cc1)NC(=O)[C@H](CO)NC(=O)[C@H](Cc1c[nH]c2ccccc12)NC(=O)[C@H](Cc1c[nH]cn1)NC(=O)[C@@H]1CCC(=O)N1` [Compound 45, pGlu-His-Trp-Ser-Tyr-D-Leu-Leu-Tyr-Pro-NHEt] ([pGlu]HWSY[dL]LYP-NHEt) are 2 and 105 percentage.
The corresponding values for `CCNC(=O)[C@@H]1CCCN1C(=O)[C@H](CCCNC(=N)N)NC(=O)[C@H](Cc1c[nH]c2ccccc12)NC(=O)[C@@H](Cc1cn(Cc2ccccc2)cn1)NC(=O)[C@H](Cc1ccc(O)cc1)NC(=O)[C@H](CO)NC(=O)[C@H](Cc1c[nH]c2ccccc12)NC(=O)[C@H](Cc1c[nH]cn1)NC(=O)[C@@H]1CCC(=O)N1` [Compound 67, pGlu-His-Trp-Ser-Tyr-D-Bhi-Trp-Arg-Pro-NHEt] ([pGlu]HWSY[dHis(τ-Bn)]WRP-NHEt) are 1 and 117 percentage.
In the same order, the values of `CCNC(=O)[C@@H]1CCCN1C(=O)[C@H](Cc1ccc(O)cc1)NC(=O)[C@H](Cc1c[nH]c2ccccc12)NC(=O)[C@@H](COC(C)(C)C)NC(=O)[C@H](Cc1ccc(O)cc1)NC(=O)[C@H](CO)NC(=O)[C@H](Cc1c[nH]c2ccccc12)NC(=O)[C@H](Cc1c[nH]cn1)NC(=O)[C@@H]1CCC(=O)N1` [Compound 12, pGlu-His-Trp-Ser-Tyr-D-Ser(tBu)-Trp-Tyr-Pro-NHEt] ([pGlu]HWSY[dS](tBu)WYP-NHEt) are 4 and 80 percentage.
Take `N=C(N)NCCC[C@H](NC(=O)[C@H](Cc1c[nH]c2ccccc12)NC(=O)[C@@H](Cc1c[nH]c2ccccc12)NC(=O)[C@H](Cc1ccc(O)cc1)NC(=O)[C@H](CO)NC(=O)[C@H](Cc1c[nH]c2ccccc12)NC(=O)[C@H](Cc1c[nH]cn1)NC(=O)[C@@H]1CCC(=O)N1)C(=O)N1CCC[C@H]1C(=O)NCC(N)=O` [Compound 66, pGlu-His-Trp-Ser-Tyr-D-Trp-Trp-Arg-Pro-Gly-amide] ([pGlu]HWSY[dW]WRPG-NH2): in data set [1], the Solubility grading is on record as 5. Besides, the “GNRHR Stimulation at 1 μM” value at GnRHR was 83 percentage.
In the same order, the values of `CCNC(=O)[C@@H]1CCCN1C(=O)[C@H](CCCNC(=N)N)NC(=O)[C@H](CC(C)C)NC(=O)[C@@H](COC(C)(C)C)NC(=O)[C@H](Cc1c[nH]cn1)NC(=O)[C@H](CO)NC(=O)[C@H](Cc1c[nH]c2ccccc12)NC(=O)[C@H](Cc1c[nH]cn1)NC(=O)[C@@H]1CCC(=O)N1` [Compound 6, pGlu-His-Trp-Ser-His-D-Ser(tBu)-Leu-Arg-Pro-NHEt] ([pGlu]HWSH[dS](tBu)LRP-NHEt) are 1 and 88 percentage.
The corresponding values for `N=C(N)NCCC[C@H](NC(=O)[C@H](Cc1c[nH]c2ccccc12)NC(=O)[C@@H](Cc1ccc2ccccc2c1)NC(=O)[C@H](Cc1ccc(O)cc1)NC(=O)[C@H](CO)NC(=O)[C@H](Cc1c[nH]c2ccccc12)NC(=O)[C@H](Cc1c[nH]cn1)NC(=O)[C@@H]1CCC(=O)N1)C(=O)N1CCC[C@H]1C(=O)NCC(N)=O` [Compound 24, pGlu-His-Trp-Ser-Tyr-D-Nal-Trp-Arg-Pro-Gly-amide] ([pGlu]HWSY[d2Nal]WRPG-NH2) are 5 and 87 percentage.
The corresponding values for `NC(=O)CNC(=O)[C@@H]1CCCN1C(=O)[C@H](Cc1ccc(O)cc1)NC(=O)[C@H](Cc1c[nH]c2ccccc12)NC(=O)[C@@H](Cc1c[nH]c2ccccc12)NC(=O)[C@H](Cc1c[nH]cn1)NC(=O)[C@H](CO)NC(=O)[C@H](Cc1c[nH]c2ccccc12)NC(=O)[C@H](Cc1c[nH]cn1)NC(=O)[C@@H]1CCC(=O)N1` [Compound 65, pGlu-His-Trp-Ser-His-D-Trp-Trp-Tyr-Pro-Gly-amide] ([pGlu]HWSH[dW]WYPG-NH2) are 4 and 72 percentage.
As for `N=C(N)NCCC[C@H](NC(=O)[C@H](Cc1c[nH]c2ccccc12)NC(=O)[C@@H](Cc1ccc2ccccc2c1)NC(=O)[C@H](Cc1c[nH]cn1)NC(=O)[C@H](CO)NC(=O)[C@H](Cc1c[nH]c2ccccc12)NC(=O)[C@H](Cc1c[nH]cn1)NC(=O)[C@@H]1CCC(=O)N1)C(=O)N1CCC[C@H]1C(=O)NCC(N)=O` [Compound 27, pGlu-His-Trp-Ser-His-D-Nal-Trp-Arg-Pro-Gly-amide] ([pGlu]HWSH[d2Nal]WRPG-NH2), the Solubility grading in data set [1] turned out to be 1. Moreover, at GnRHR, the “GNRHR Stimulation at 1 μM” value is given as 108 percentage.
In data set [1], `CCNC(=O)[C@@H]1CCCN1C(=O)[C@H](CCCNC(=N)N)NC(=O)[C@H](Cc1c[nH]c2ccccc12)NC(=O)[C@@H](CC(C)C)NC(=O)[C@H](Cc1c[nH]cn1)NC(=O)[C@H](CO)NC(=O)[C@H](Cc1c[nH]c2ccccc12)NC(=O)[C@H](Cc1c[nH]cn1)NC(=O)[C@@H]1CCC(=O)N1` [Compound 47, pGlu-His-Trp-Ser-His-D-Leu-Trp-Arg-Pro-NHEt] ([pGlu]HWSH[dL]WRP-NHEt) gave a Solubility grading of 1. The “GNRHR Stimulation at 1 μM” value on GnRHR is 119 percentage.
